Source: ChEMBL document CHEMBL1201862, “PubChem BioAssay data set” (2004)
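Briefly, cells in 96-well plates were exposed to five compound concentrations for 48 h, and endpoints were estimated by linear interpolation. GI50 = concentration required for 50% inhibition of growth.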 Active and inactive are the calls of the source. Cut-off read from the data, not from the text of the source: active = GI50 up to about 1.1 µM and inactive = higher.

Tests used:
Assay in all cases: NCI-60 cell line screen, 48 h
786-0 = system: 786-0
COLO 205 = system: COLO 205
EKVX = system: EKVX
HCT-116 = system: HCT-116
HCT-15 = system: HCT-15
HT-29 = system: HT-29
Hs-578T = system: Hs-578T
M14 = system: M14
NCI-H23 = system: NCI-H23
NCI-H460 = system: NCI-H460
NCI-H522 = system: NCI-H522
PC-3 = system: PC-3
SF-539 = system: SF-539
SK-MEL-5 = system: SK-MEL-5
SN12C = system: SN12C
SW-620 = system: SW-620
TK-10 = system: TK-10
OVCAR-5 = system: OVCAR-5
SK-MEL-2 = system: SK-MEL-2
U-251 = system: U-251

SMILES | GI50 (786-0) | GI50 (COLO 205) | GI50 (EKVX) | GI50 (HCT-116) | GI50 (HCT-15) [µM] | GI50 (HT-29) | GI50 (Hs-578T) | GI50 (M14) | GI50 (NCI-H23) | GI50 (NCI-H460) | GI50 (NCI-H522) | GI50 (PC-3) | GI50 (SF-539) | GI50 (SK-MEL-5) | GI50 (SN12C) | GI50 (SW-620) | GI50 (TK-10) | GI50 (OVCAR-5) | GI50 (SK-MEL-2) | GI50 (U-251)
O=[N+]([O-])c1ccc2[nH]c(-c3ccc(Cl)cc3)nc2c1 | 33 µM (inactive) | 16.7 µM (inactive) | 14.4 µM (inactive) | 17.3 µM (inactive) | 14.9 | 18.5 µM (inactive) | 25.5 µM (inactive) | 19.1 µM (inactive) | 25.3 µM (inactive) | 19.5 µM (inactive) | 12.6 µM (inactive) | 21.4 µM (inactive) | 21.1 µM (inactive) | 16.1 µM (inactive) | 29.7 µM (inactive) | 32.7 µM (inactive) | 32.6 µM (inactive) |  |  | 
CN(C)CCCNc1ncnc2[nH]cnc12 | > 100 µM (inactive) | > 100 µM (inactive) | > 100 µM (inactive) | > 100 µM (inactive) | > 100 | > 100 µM (inactive) | > 100 µM (inactive) | > 100 µM (inactive) | > 100 µM (inactive) | > 100 µM (inactive) | > 100 µM (inactive) | > 100 µM (inactive) |  | > 100 µM (inactive) | > 100 µM (inactive) | > 100 µM (inactive) | > 100 µM (inactive) | > 100 µM (inactive) | > 100 µM (inactive) | > 100 µM (inactive)
Sc1ncc2[nH]nnc2n1 | > 100 µM (inactive) | > 100 µM (inactive) | > 100 µM (inactive) | > 100 µM (inactive) | > 100 | > 100 µM (inactive) | > 100 µM (inactive) |  | > 100 µM (inactive) | > 100 µM (inactive) | > 100 µM (inactive) | > 100 µM (inactive) | > 100 µM (inactive) | > 100 µM (inactive) | > 100 µM (inactive) | > 100 µM (inactive) | > 100 µM (inactive) | > 100 µM (inactive) |  | > 100 µM (inactive)
NNc1nnc(-c2nnc(NN)o2)o1 | > 10 µM (inactive) | > 10 µM (inactive) | > 10 µM (inactive) | > 10 µM (inactive) | > 10 | > 10 µM (inactive) | > 10 µM (inactive) | > 10 µM (inactive) | > 10 µM (inactive) | > 10 µM (inactive) |  | > 10 µM (inactive) | > 10 µM (inactive) | > 10 µM (inactive) | > 10 µM (inactive) | > 10 µM (inactive) | > 10 µM (inactive) | > 10 µM (inactive) |  | > 10 µM (inactive)
CCOC(=O)NC(=S)NN(C)C1=NCC(C)(C)S1 | > 100 µM (inactive) | > 100 µM (inactive) | > 100 µM (inactive) | > 100 µM (inactive) | > 100 |  | > 100 µM (inactive) |  |  | > 100 µM (inactive) | > 100 µM (inactive) | > 100 µM (inactive) | > 100 µM (inactive) | > 100 µM (inactive) | > 100 µM (inactive) | > 100 µM (inactive) | > 100 µM (inactive) | > 100 µM (inactive) | > 100 µM (inactive) | > 100 µM (inactive)
CC1CCCC(C(O)CC2CC(=O)NC(=O)C2)C1O (centres undefined) | > 100 µM (inactive) | > 100 µM (inactive) | > 100 µM (inactive) | > 100 µM (inactive) | > 100 | > 100 µM (inactive) | > 100 µM (inactive) | > 100 µM (inactive) | > 100 µM (inactive) | > 100 µM (inactive) |  | > 100 µM (inactive) | > 100 µM (inactive) | > 100 µM (inactive) | > 100 µM (inactive) | > 100 µM (inactive) | > 100 µM (inactive) | > 100 µM (inactive) | > 100 µM (inactive) | > 100 µM (inactive)
Cn1c(=O)c2c(nc(NCCCCl)n2CC(=O)NCCCCl)n(C)c1=O | > 100 µM (inactive) | > 100 µM (inactive) | > 100 µM (inactive) | > 100 µM (inactive) | > 100 | > 100 µM (inactive) | > 100 µM (inactive) | > 100 µM (inactive) | > 100 µM (inactive) | > 100 µM (inactive) | > 100 µM (inactive) | > 100 µM (inactive) |  | > 100 µM (inactive) | > 100 µM (inactive) | > 100 µM (inactive) | > 100 µM (inactive) | > 100 µM (inactive) | > 100 µM (inactive) | > 100 µM (inactive)
Cn1c(SCc2ccc(F)cc2)nnc1C12CC3CC(CC(C3)C1)C2 | 35.8 µM (inactive) | 17 µM (inactive) | 37.1 µM (inactive) | 23.3 µM (inactive) | 26.4 | 16.1 µM (inactive) | 34.8 µM (inactive) | 24.2 µM (inactive) | 50.6 µM (inactive) | 40 µM (inactive) | 36.9 µM (inactive) | 28.8 µM (inactive) | 24.5 µM (inactive) | 11.9 µM (inactive) | 43.2 µM (inactive) | 58.7 µM (inactive) |  | 63.2 µM (inactive) | 40.6 µM (inactive) | 35.2 µM (inactive)
CC(=O)OCC1OC(n2ncc(=O)[nH]c2=O)C(OC(C)=O)C1OC(C)=O (centres undefined) | 4.04 µM (inactive) | 11.3 µM (inactive) |  | 1.07 µM (active) | 3.41 | 6.67 µM (inactive) | 19.1 µM (inactive) | 73.5 µM (inactive) | 68.5 µM (inactive) | 1.17 µM (inactive) | 19.1 µM (inactive) | 68.9 µM (inactive) | 30.3 µM (inactive) | 19.3 µM (inactive) | 34.4 µM (inactive) | 1.4 µM (inactive) | > 100 µM (inactive) | > 100 µM (inactive) |  | 1.09 µM (active)
CCOC(=O)c1c(N2CCCC2)[nH]c(=O)c(C(c2ccc(N(C)C)cc2)c2c(O)c(C(=O)OCC)c(N3CCCC3)[nH]c2=O)c1O | > 100 µM (inactive) | > 100 µM (inactive) | > 100 µM (inactive) | > 100 µM (inactive) | > 100 | > 100 µM (inactive) | > 100 µM (inactive) | > 100 µM (inactive) | 95.5 µM (inactive) | > 100 µM (inactive) | > 100 µM (inactive) | > 100 µM (inactive) | > 100 µM (inactive) | > 100 µM (inactive) | > 100 µM (inactive) | > 100 µM (inactive) | 94.2 µM (inactive) | > 100 µM (inactive) |  | > 100 µM (inactive)
COc1ccc(C2(O)C(S(=O)(=O)c3ccc(C)cc3)=Cc3ccc(OC)cc32)cc1 (centres undefined) | 41 µM (inactive) | > 100 µM (inactive) | 78.2 µM (inactive) | > 100 µM (inactive) | > 100 | > 100 µM (inactive) | 23.6 µM (inactive) |  | > 100 µM (inactive) | > 100 µM (inactive) | 39.9 µM (inactive) | 53.8 µM (inactive) | 43.5 µM (inactive) | > 100 µM (inactive) | 73.8 µM (inactive) | > 100 µM (inactive) | 46.5 µM (inactive) | > 100 µM (inactive) | 43.2 µM (inactive) | 41.2 µM (inactive)
NC(=O)C(=CNC(=S)Nc1cccc(C(F)(F)F)c1)C(N)=O | > 100 µM (inactive) | > 100 µM (inactive) |  | > 100 µM (inactive) |  | > 100 µM (inactive) | > 100 µM (inactive) | > 100 µM (inactive) | > 100 µM (inactive) | > 100 µM (inactive) |  | > 100 µM (inactive) | > 100 µM (inactive) | > 100 µM (inactive) | > 100 µM (inactive) | > 100 µM (inactive) | > 100 µM (inactive) | > 100 µM (inactive) | > 100 µM (inactive) | > 100 µM (inactive)
OCC1C(OCc2ccccc2)C(OCc2ccccc2)C(OCc2ccccc2)CN1Cc1ccccc1 (centres undefined) | 26.3 µM (inactive) | 14.3 µM (inactive) | 84.9 µM (inactive) | 17.3 µM (inactive) | 30.5 | 9.62 µM (inactive) | 24.6 µM (inactive) | 37.2 µM (inactive) | 15.4 µM (inactive) | 14.5 µM (inactive) | 27.4 µM (inactive) | 13 µM (inactive) | 73.5 µM (inactive) |  | 14.5 µM (inactive) | 53 µM (inactive) | 42.8 µM (inactive) | 37.5 µM (inactive) |  | 27.3 µM (inactive)
O=c1[nH]cnc2c(C3OC(CO)C(O)C3O)c[nH]c12 (centres undefined) | > 100 µM (inactive) | > 100 µM (inactive) | > 100 µM (inactive) | > 100 µM (inactive) |  | > 100 µM (inactive) | > 100 µM (inactive) | > 100 µM (inactive) | > 100 µM (inactive) | > 100 µM (inactive) | > 100 µM (inactive) | > 100 µM (inactive) | > 100 µM (inactive) | > 100 µM (inactive) | > 100 µM (inactive) | > 100 µM (inactive) | > 100 µM (inactive) | > 100 µM (inactive) |  | > 100 µM (inactive)
C=CCOn1c(C=C)nc2c(C)cccc21 | 2.18 µM (inactive) | 1.95 µM (inactive) | 13.5 µM (inactive) | 2.01 µM (inactive) | 3.07 | 3.36 µM (inactive) | 4.98 µM (inactive) | 3.61 µM (inactive) | 7.74 µM (inactive) | 2.32 µM (inactive) | 2.29 µM (inactive) | 3.08 µM (inactive) |  | 3.89 µM (inactive) | 3.63 µM (inactive) | 3.2 µM (inactive) | 2.63 µM (inactive) | 7.03 µM (inactive) | 2.21 µM (inactive) | 1.98 µM (inactive)
